Experimental data published in the METLIN SMRT retention time set (Domingo-Almenara et al. 2019).

experiment: gradient 5% acetonitrile 3 min, to 50% in 2 min, to 85% in 15 min, held 3 min, 100 µL/min; conditions: column: Zorbax Extend-C18 2.1 x 50 mm; eluents: water / acetonitrile, 0.1% formic acid
Procedure, shortened: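 Each retention time is based on an adduct peak selected computationally and verified by manual inspection. Measurements used HPLC–quadrupole time-of-flight mass spectrometry in positive and negative ionization mode on mixtures of ~100 pure standards. Chromatography ran on a Zorbax Extend-C18 column (2.1 × 50 mm, 1.8 μm) at 100 μL/min with water and acetonitrile, each containing 0.1% formic acid, and dead and dwell volumes of 40 μL and 900 μL.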

In order of rising RP-LC retention time:
1. CC(C)c1nnc(C2CN(C)CC23CCN(Cc2cc(Cl)ccc2F)CC3)o1 (stereo not given)  563 s
2. Cc1cc(C)cc(NC(=O)CN2CCC(C(=O)Nc3ccc(C(N)=O)cc3)CC2)c1  571 s
3. Cc1nc(C)c(C(=O)N2CCC(n3c(C)cnc3C3CCC3)CC2)s1  580 s
4. CCc1nc2cc(N3CCC(C(=O)NCCN4CCOCC4)CC3)cnc2nc1CC  581 s
5. CCC1CCCCN1CCCNC(=O)CCc1cc2cc(C)ccc2[nH]c1=O (stereo not given)  600 s
6. CCN(CC)CCCNC(=O)C1CCC(=O)N(c2ccc(OC)cc2)C1c1ccc(F)cc1 (stereo not given)  614 s
7. CCNC(=O)C1CCN(S(=O)(=O)c2ccc3c(c2)NC(=O)CO3)CC1  623 s
8. CCOC(=O)C1=C(CN2CCOCC2)NC(=O)NC1c1ccc(OC(C)C)cc1 (stereo not given)  628 s
9. CCc1cc(C(=O)N2CCCC2)nc2cc(-c3cccs3)nn12  655 s
10. CN(C)CCN1CC(C(=O)N2CCC(c3c[nH]c4ccccc34)(c3c[nH]c4ccccc34)CC2)CC1=O (stereo not given)  657 s
11. Nc1ccccc1NC(=O)c1ccc(CNc2nccc(-c3cccnc3)n2)cc1  664 s
12. Cn1c(=O)c(NCCCN2CCCc3ccccc32)nc2ccncc21  665 s
13. CCS(=O)(=O)N1CCC[C@@H]2CN3CCc4cc(OC)ccc4[C@@H]3C[C@@H]21  670 s
14. Cn1c(N2CCCC(C(=O)NCc3ccc(F)cc3)C2)cc(=O)n(C)c1=O (stereo not given)  680 s
15. CC1CN=C2C=C(N3CCN(C(=O)Nc4ccc(C(F)(F)F)cc4)CC3)N=CN21 (stereo not given)  688 s
16. O=C(NCCc1csc(C2CCN(C(=O)C3CCCC3)CC2)n1)C1CC1  690 s
17. CCOc1ccc(-c2cc3n(n2)CCCN(C(=O)c2cc(C)n(C)n2)C3)cc1  698 s
18. COc1cc(NC(=O)CN2C(=O)COc3ccc(C(=O)N4CCCC4)cc32)cc(OC)c1  718 s
19. O=c1n(Cc2ccccc2)nc2c(S(=O)(=O)N3CCOCC3)cccn12  721 s
20. COC(=O)c1c(C)[nH]c(C(=O)N2CCC(CC(=O)NC3CCCCC3)CC2)c1C  730 s
21. CCCNC(=O)C1CCN(S(=O)(=O)c2cc(C(=O)N3CCC(C)CC3)n(C)c2)CC1  738 s
22. CCc1ccc(C2=C(C)C(N3CCCN(C(=O)COC)CC3)=NS2(=O)=O)cc1  742 s
23. COc1ccc(C)cc1NC(=O)N1CC(c2nc(C)no2)C2(CCOCC2)C1 (stereo not given)  753 s
24. COc1ccc(OC)c(NC(=O)Cn2c(=O)c(CCC(=O)NCC(C)C)nc3ccccc32)c1  798 s
25. Cc1cc(C)cc(NC(=O)c2c(O)c3cccnc3n(-c3ccc(F)cc3)c2=O)c1  803 s
26. CCOc1ccc(S(=O)(=O)N2CCCC(C(=O)NC(C)C)C2)cc1 (stereo not given)  825 s
27. Cn1c(=O)n([C@H]2CCCN(S(=O)(=O)Cc3ccccc3)C2)c2ncccc21  827 s
28. CCOC(=O)Cn1cccc(S(=O)(=O)N2CCCCCC2)c1=O  831 s
29. Cc1nn2c(CNS(=O)(=O)c3ccccc3F)c(-c3ccccc3)nc2s1  834 s
30. COc1ccc(NC(=O)N2CCCC2c2nc(-c3ccc(OC)cc3)no2)cc1 (stereo not given)  876 s
31. O=C(NCc1ccccc1C(F)(F)F)C1CCN(c2nnc(-c3ccccc3)o2)CC1  892 s
32. Cc1ccc(C(C)NC(=O)Cn2cc(-c3noc(-c4ccc(F)cc4)n3)nc2C)cc1 (stereo not given)  907 s
33. CSc1cccc(NC(=O)N2CCCC(C)(C(=O)NCc3ccccc3)C2)c1 (stereo not given)  951 s
34. COc1ccc(-c2noc(C3CCCN3C(=O)c3c(OC)cccc3OC)n2)cc1 (stereo not given)  960 s
35. CCc1ccc(NC(=O)Cn2nc3cc(C)nc(N4CCCC4)n3c2=O)cc1  968 s
36. Cc1c(-c2noc(-c3ccc4c(c3)OCO4)n2)nnn1Cc1cccc(F)c1  990 s
37. O=S(=O)(c1ccc2c(c1)OCCO2)N1CCCn2nc(-c3cccc(Cl)c3)cc2C1  1040 s
38. CCOc1nc2ccccc2nc1N1CCCC(C(=O)N2CCCC2)C1 (stereo not given)  1070 s
39. C=CCN(Cc1nc(-c2ccc(C)cc2)no1)C(=O)Nc1cccc(Cl)c1  1150 s
40. CCOc1ccccc1-c1noc(Cn2c(=O)n(Cc3ccccc3Cl)c(=O)c3sccc32)n1  1160 s
41. COc1ccc(NS(=O)(=O)c2cc(-c3nc(C(C)(C)C)cs3)cs2)cc1F  1180 s
42. COc1cccc(C2Cn3nnc(-c4nc(-c5ccccc5C)no4)c3CO2)c1 (stereo not given)  1180 s
43. CCOc1nc2ccccc2nc1N1CCCC(C(=O)Nc2ccccc2)C1 (stereo not given)  1180 s
44. COc1ccc(-c2noc(C3(NC(=O)c4ccccc4OC)CCCCC3)n2)cc1  1210 s
45. Cc1cccc(-c2noc(Cn3ncn4nc(-c5ccc(Br)cc5)cc4c3=O)n2)c1  1260 s
